Structures can show the parent of a compound that is named as a salt. Where two headings read alike, the source gives them in different places. A value given as a limit tells only on which side of the number the result lay.

The text on data set [1]: No consumable enrichment was provided. […] Cages were changed twice weekly.
All treatments were initiated on Day 10.

Data set [2] deals with MX-1 human mammary tumor xenografts. Description: Growth of subcutaneously-implanted MX-1 human mammary tumor xenografts in mice. Background: Xenograft models place foreign cells or tissue in a host animal.
Description: A total of 120 tumor bearing mice were divided into twelve groups of 10 mice. […] All treatments were initiated 10 days after the implantation of tumor xenografts.
Six-weeks-old female, athymic NCr-nu/nu mice were purchased from Charles River Laboratories (Wilmington, Mass.) and acclimated in the laboratories for 10 days prior to experimentation. The animals were housed in microisolator cages, five per cage with a 12-hour light/dark cycle. The animals received filtered Birmingham municipal water and sterilized Teklad Global 16% protein rodent diet (2016S, Harlan Laboratories, Inc.) ad libitum. No consumable enrichment was provided. Enrich-n'Nest paper rolls (the Andersons Lab Bedding Products, Maumee, Ohio) were provided in each cage as manipulanda. Cages were changed twice weekly. The animals were observed daily and clinical signs were noted.
Each mouse was implanted SC near the right flank with a 30-40 mg fragment of MX-1 human mammary tumor from an in vivo passage using a 13-gauge needle. The day of tumor fragments implantation was designated as Day 0. Individual tumors of 120 animals grew to 100-245 mg in weight (100-245 mm^3 in size) on the day of treatment initiation, Day 10 after tumor fragments implantation. Those animals selected with tumors in the proper size range were assigned to twelve treatment groups so that the mean and median tumor weights in all groups on the first day of treatment were as close to each other as possible (mean tumor weights ranged from 160 to 168 mg, median tumor weights were 153 or 162 mg).
The solution was allowed to stand for 2-3 minutes to make sure it was fully in solution. […] On each day of treatment, an aliquot was thawed at room temperature and diluted with saline to yield a concentration of 0.06 mg/mL in 2.5% DMSO/97.5% saline. Lower concentrations of 0.04 and 0.02 mg/mL were achieved by dilution of a portion of the 0.06 mg/mL solution with 2.5% DMSO/97.5% saline. Bottles with dosing solutions were stored at 4° C. between formulation and administration.
0.5% MC/0.2% T80 in WFI was formulated and the solution was stored at 4° C. […] A portion of the 4 mg/mL cloudy solution was diluted with 0.5% MC/0.2% T80 in WFI to 2 mg/mL. Bottles with dosing solutions were stored at 4° C. between formulation and administration.
The experiment consisted of a vehicles-treated control group and eleven drug-treated groups of 10 mice per group for a total of 120 mice on the first day of treatment. All treatments were initiated on Day 10. […] On the days when both compounds were administered, E7389 was administered to all combination groups first [−(0)]
Animals were observed once daily for mortality and morbidity. The SC tumors were measured and the animals were weighed twice weekly starting with the first day of treatment, Day 10 after tumor fragment implantation.
Data set [3] deals with twenty-five cell line panel. Description: Anti-proliferation assay (ATPLite, growth inhibition), single agent dose response. It counts as cell-based. The note with it: median across cell lines reaching >50% inhibition; 72 h; three-fold, ten-point dose titration. As to the method: Cells are thawed from a liquid nitrogen preserved state. […] The calculation for synergy score is provided below. […] This formula is derived from the Growth Inhibition calculation used in the National Cancer Institute's NCI-60 high throughput screen. All single agent and combination data analysis are performed in growth inhibition. Eribulin had varying activity across a twenty-five cell line panel. Single agent activity was assessed using a three-fold, ten-point dose titration. Twenty-three cell lines were evaluated in 1536-well plate format. Two additional cell lines were evaluated in 384-well plate format.
(In general: Cellular ATP, detected with luciferase, serves as a proxy for viable cell number.)

Setting [4] is: everolimus 20 mg/kg/dose PO Q1Dx16 (Group 6).
[5] abbreviates: everolimus 40 mg/kg/dose PO Q1Dx16 (Group 5).
Setting [6] is: E7389 0.2 mg/kg/injection IV Q4Dx4 (Group 4).
The mark [7] stands for this setting: E7389 0.4 mg/kg/injection IV Q4Dx4 (Group 3).

Turning to `CO[C@H]1C[C@@H]2CC[C@@H](C)[C@@](O)(O2)C(=O)C(=O)N2CCCC[C@H]2C(=O)O[C@H]([C@H](C)C[C@@H]2CC[C@@H](OCCO)[C@H](OC)C2)CC(=O)[C@H](C)/C=C(\C)[C@@H](O)[C@@H](OC)C(=O)[C@H](C)C[C@H](C)/C=C/C=C/C=C/1C` [everolimus], in data set [1] (mouse, in vivo, po), the “maximum tolerated dose (MTD)” value was “not reached”. Moreover, in data set [2] (setting [4]), the “T/C value on Day 34 (median tumor weight)” value (from here on “T/C value”) is 74% and the “median tumor growth delay (T-C)” value came out at 4.0 days. Further, in data set [2] (setting [5]), the “T/C value” value came to 46% and the “median tumor growth delay (T-C)” value was found to be 6.1 days. The “inhibition of the growth of the MX-1 mammary tumor xenografts” value in data set [2] (everolimus 40 and 20 mg/kg/dose PO) is “minimally effective”.

Take `C=C1C[C@@H]2CC[C@@]34C[C@H]5O[C@H]6[C@@H](O3)[C@H]3O[C@H](CC[C@@H]3O[C@H]6[C@H]5O4)CC(=O)C[C@@H]3[C@@H](OC)[C@@H](C[C@H](O)CN)O[C@H]3C[C@H]3O[C@@H](CC[C@@H]1O2)C[C@@H](C)C3=C` [Eribulin]: the GI50 (in general, the concentration that inhibits growth by half) in data set [3] is 0.51 nM.

On to `C=C1C[C@@H]2CC[C@@]34C[C@H]5O[C@H]6[C@@H](O3)[C@H]3O[C@H](CC[C@@H]3O[C@H]6[C@H]5O4)CC(=O)C[C@@H]3[C@@H](OC)[C@@H](C[C@H](O)CN)O[C@H]3C[C@H]3O[C@@H](CC[C@@H]1O2)C[C@@H](C)C3=C` [E7389, II, 15:18,21:24,28-triepoxy-7,9-ethano-12,15-methano-9H,15H-furo[3,2-i]furo[2′,3′:5,6]pyrano[4,3-b][1,4]dioxacyclopentacosin-5(4H)-one, 2-[(2S)-3-amino-2-hydroxypropyl]hexacosahydro-3-methoxy-26-methyl-20,27-bis(methylene)-, (2R,3R,3aS,7R,8aS,9S,10aR,11S,12R,13aR,13bS,15S,18S,21S,24S,26R,28R,29aS)-methanesulfonate (salt)], for which, in data set [1] (E7389 0.6, 0.4 and 0.2 mg/kg/injection IV Q4Dx4 (Groups 2-4)), the tolerability / deaths entry was “tolerated without treatment-related deaths”. The “maximum tolerated dose (MTD)” value in data set [1] (E7389 IV Q4Dx4, doses up to 0.6 mg/kg/injection) is reported as “not reached”. In addition, the “dryness of the skin” value in data set [1] (mouse, in vivo) is on record as “not noted”. For the same compound, the “mean body weight loss” value in data set [1] (mouse, in vivo, iv, 0.2 mg/kg) is given as “did not result in mean body weight loss”. For the same compound, the “maximum mean body weight loss” value is reported as 1% in data set [1] (mouse, in vivo, iv, 0.4 mg/kg) and 1% in data set [1] (mouse, in vivo, iv, 0.6 mg/kg). Further, the “T/C value” value in data set [2] (setting [6]) was determined as 51%; in data set [2] (setting [7]) it was 13%; in data set [2] (E7389 0.6 mg/kg/injection IV Q4Dx4 (Group 2)), 0%. Further, the “median tumor growth delay (T-C)” value is recorded as more than 6.3 days in data set [2] (setting [6]); 17.7 days in data set [2] (setting [7]); more than 33.8 days in data set [2] (E7389 0.6 mg/kg/injection IV Q4Dx4 (Group 2), time to four tumor mass doublings). Further, the “number of tumor-free survivors on day of study termination (Day 62)” value in data set [2] (E7389 0.6 mg/kg/injection (Group 2)) was “five”. For the same compound, the “number of complete tumor regressions” value in data set [2] (E7389 0.6 mg/kg/injection (Group 2), out of ten animals) is “six”. Also, in data set [2] (E7389 0.6, 0.4 and 0.2 mg/kg/injection IV), the “inhibition of the growth of the MX-1 mammary tumor xenografts” value is given as “very effective”.

The record behind these values is US20170071903A1, “USE OF ERIBULIN AND MTOR INHIBITORS AS COMBINATION THERAPY FOR THE TREATMENT OF CANCER” (Eisai R&D Management Co., Ltd., priority 2014, published 2017).
